Test results reported in PMC8747639, “Novel Angiotensin-Converting Enzyme Inhibitory Peptides Identified from Walnut Glutelin-1 Hydrolysates: Molecular Interaction, Stability, and Antihypertensive Effects” (Nutrients, 2021).
No end group written: not given here.

T1: angiotensin-converting enzyme (ACE) from rabbit lung (rabbit) (UniProt P12822)
T1 sequence: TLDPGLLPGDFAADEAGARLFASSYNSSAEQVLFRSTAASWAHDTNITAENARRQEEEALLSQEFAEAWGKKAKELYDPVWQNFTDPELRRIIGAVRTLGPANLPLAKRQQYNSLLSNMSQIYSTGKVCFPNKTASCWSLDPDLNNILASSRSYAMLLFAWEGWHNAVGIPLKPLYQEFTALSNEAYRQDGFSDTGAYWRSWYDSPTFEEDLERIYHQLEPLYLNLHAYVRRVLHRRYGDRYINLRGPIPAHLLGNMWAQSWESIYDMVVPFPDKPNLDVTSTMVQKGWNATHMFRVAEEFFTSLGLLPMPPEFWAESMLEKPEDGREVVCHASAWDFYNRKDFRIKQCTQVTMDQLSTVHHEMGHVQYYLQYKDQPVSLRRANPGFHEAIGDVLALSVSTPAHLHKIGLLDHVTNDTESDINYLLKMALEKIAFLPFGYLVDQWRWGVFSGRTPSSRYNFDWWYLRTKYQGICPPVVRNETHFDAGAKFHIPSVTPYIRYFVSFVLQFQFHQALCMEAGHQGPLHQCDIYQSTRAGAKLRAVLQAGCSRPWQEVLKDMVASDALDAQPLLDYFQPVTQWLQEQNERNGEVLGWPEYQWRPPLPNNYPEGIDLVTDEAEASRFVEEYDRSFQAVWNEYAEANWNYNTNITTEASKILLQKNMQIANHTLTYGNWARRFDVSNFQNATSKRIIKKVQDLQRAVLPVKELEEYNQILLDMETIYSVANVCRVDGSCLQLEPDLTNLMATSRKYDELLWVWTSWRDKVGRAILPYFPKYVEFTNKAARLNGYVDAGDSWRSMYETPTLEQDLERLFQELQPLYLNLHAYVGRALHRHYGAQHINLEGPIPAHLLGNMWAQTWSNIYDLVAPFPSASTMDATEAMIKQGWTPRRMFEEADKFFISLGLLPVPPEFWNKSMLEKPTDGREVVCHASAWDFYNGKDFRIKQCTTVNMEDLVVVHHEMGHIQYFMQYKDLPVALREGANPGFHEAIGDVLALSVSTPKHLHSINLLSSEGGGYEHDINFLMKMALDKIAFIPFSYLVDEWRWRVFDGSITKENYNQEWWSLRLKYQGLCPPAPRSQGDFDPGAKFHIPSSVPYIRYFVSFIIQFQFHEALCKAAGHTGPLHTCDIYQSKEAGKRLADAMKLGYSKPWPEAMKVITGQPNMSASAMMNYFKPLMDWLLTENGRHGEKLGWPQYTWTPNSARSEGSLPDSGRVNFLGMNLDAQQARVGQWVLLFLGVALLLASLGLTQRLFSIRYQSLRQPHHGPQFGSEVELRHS

T2: ACE (from rabbit lung) (Oryctolagus cuniculus, UniProt P12822)
T2 construct: ACE (from rabbit lung) and hippuryl-histidyl-leucine (HHL) were purchased from Sigma Co; purchased Sigma Co., St. Louis, MO, USA; host or cells: rabbit lung (tissue-derived)
T2 sequence (P12822 34-1310): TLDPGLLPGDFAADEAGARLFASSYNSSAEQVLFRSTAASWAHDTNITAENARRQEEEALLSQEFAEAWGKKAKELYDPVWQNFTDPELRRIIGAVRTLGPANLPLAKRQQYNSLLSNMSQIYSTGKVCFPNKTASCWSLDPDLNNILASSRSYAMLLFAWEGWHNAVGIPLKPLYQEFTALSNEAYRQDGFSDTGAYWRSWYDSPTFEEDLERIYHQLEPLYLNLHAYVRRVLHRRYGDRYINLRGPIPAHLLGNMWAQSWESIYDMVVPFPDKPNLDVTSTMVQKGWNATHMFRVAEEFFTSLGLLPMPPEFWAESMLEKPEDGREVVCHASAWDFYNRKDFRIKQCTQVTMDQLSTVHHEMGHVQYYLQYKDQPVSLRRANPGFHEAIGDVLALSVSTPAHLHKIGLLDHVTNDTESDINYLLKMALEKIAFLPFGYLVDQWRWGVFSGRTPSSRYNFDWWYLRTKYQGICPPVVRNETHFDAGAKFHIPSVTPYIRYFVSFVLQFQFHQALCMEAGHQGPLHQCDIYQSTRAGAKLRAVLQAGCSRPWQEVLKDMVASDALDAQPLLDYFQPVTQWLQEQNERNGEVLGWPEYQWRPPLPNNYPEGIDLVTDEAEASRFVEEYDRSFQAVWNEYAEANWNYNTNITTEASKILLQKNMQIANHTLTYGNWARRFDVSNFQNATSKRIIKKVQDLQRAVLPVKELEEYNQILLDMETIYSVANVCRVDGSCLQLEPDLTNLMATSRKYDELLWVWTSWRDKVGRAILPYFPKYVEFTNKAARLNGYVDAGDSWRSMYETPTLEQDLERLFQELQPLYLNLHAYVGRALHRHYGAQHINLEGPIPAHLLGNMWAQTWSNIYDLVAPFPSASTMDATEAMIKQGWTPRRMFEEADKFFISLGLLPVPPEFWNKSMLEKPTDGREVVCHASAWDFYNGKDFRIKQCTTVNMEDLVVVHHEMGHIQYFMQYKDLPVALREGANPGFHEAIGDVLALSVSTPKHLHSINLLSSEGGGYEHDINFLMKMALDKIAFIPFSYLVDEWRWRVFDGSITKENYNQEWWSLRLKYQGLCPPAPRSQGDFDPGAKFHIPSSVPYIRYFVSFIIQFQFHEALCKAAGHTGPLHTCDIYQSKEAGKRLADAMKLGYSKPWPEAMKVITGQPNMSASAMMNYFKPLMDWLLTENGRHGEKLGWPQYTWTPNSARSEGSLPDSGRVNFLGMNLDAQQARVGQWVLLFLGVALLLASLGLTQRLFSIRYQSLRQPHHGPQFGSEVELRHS


Legend:
[1] = biological target: T1, angiotensin-converting enzyme (ACE) from rabbit lung (rabbit)
ACE (from rabbit lung) = biological target: T2, ACE (from rabbit lung); experiment: ACE inhibitory activity (HHL substrate, absorbance); format: biochemical; details: calculated by linear regression of the curve; read-out: IC50 on angiotensin converting enzyme (ACE)
From the text: The Grain, Oil and Protein Engineering Laboratory of Shaanxi Normal University (Xi’an, China) provided the defatted walnut meal. ACE (from rabbit lung) and hippuryl-histidyl-leucine (HHL) were purchased from Sigma Co., St. Louis, MO, USA. Pepsin (3 × 10^3 U/g) was obtained from Solarbio Science & Technology, Co., Ltd. (Beijing, China). High-performance liquid chromatography grade acetonitrile and trifluoroacetic acid were purchased from Fischer Scientific Co. (Waltham, MA, USA). The enzyme-linked immunosorbent assay kit for the detection of ACE, angiotensinogen (AGT), aldosterone (ALD), and Endothelin-1(ET-1) was purchased from Jiangsu Jingmei Biotechnology Co., Ltd. (YanCheng, China). The enzyme-linked immunosorbent assay kit for the detection of Ang II was obtained from Shanghai Kexing Biotechnology Co., Ltd., (Shanghai, China). and the nitric oxide (NO) detection kit was a product of Nanjing Jiancheng Institute of Biological Engineering (Nanjing, China), and other chemical reagents used in the experiment were of analytical grade.
Following a previous method reported by Zheng et al. (2017), we could determine the ACE inhibitory activity of glutelin-1 hydrolysate, separated fractions, active peptides, and all the other samples with 1.0 mg/mL Captopril as a positive control. The IC50 value (the concentrationof the inhibitory peptide (μM) had to inhibit 50% of the ACE activity) was calculated by linear regression of the curve.
The following formula was used to calculate the ACE inhibition rate (%): ACE inhibition rate(%)=(1-As/Ac)×100 where Ac represents ACE solution’s absorbance without an inhibitor and As represents the mixture containing samples.

pepsin and trypsin = experiment: GI digestion stability of the synthesized peptides (pepsin, trypsin), read out as ACE inhibitory activity; format: in vitro ADME; details: pepsin 1 mg/mL pH 2.0 37 °C 3 h, or trypsin 1.0 mg/mL pH 8.0 37 °C 4 h
Experimental: We conducted a GI digestion stability analysis of the synthesized peptides according to the method proposed by Khueychai et al. (2018) with slight modifications. Briefly, the peptide solution was incubated with 1 mg/mL of pepsin solution (0.1 M HCl, pH 2.0) at 37 °C for 3 h. Subsequently, the pH value of the mixed solution was adjusted to 8.0 with 1.0 M NaOH, and 1.0 mg/mL of trypsin added and incubated at 37 °C for 4 h. Finally, the ACE inhibitory activity of the reaction solution could be determined after boiling for 10 min, cooling to room temperature, and centrifuging for 15 min at 10,000× g.

[2] = Temperature, pH, metal ion, sugar and salt treatment stability of the synthesized peptides, read out as ACE inhibition rate; format: physicochemical; details: 1.0 mg/mL peptide, read-out ACE inhibition rate
Experimental: The effect of temperature, pH, metal ion, sugar, and salt treatments on the stabilities of two synthesized peptides, were determined by incubating 1.0 mg/mL of VERGRRITSV and FVIEPNITPA at 20 °C, 40 °C, 60 °C, 80 °C, and 100 °C for 2 h; 37 °C for 2 h at pH 2, 4, 6, 8, and 10; with 100 μg/mL of KCl, CaCl2, ZnSO4, MgSO4, and FeSO4 solution at 37 °C for 2 h; with glucose solutions of 2%, 4%, 8%, and 12% at 37 °C for 30 min; with NaCl solutions of 2%, 4%, 8%, and 12% at 37 °C for 30 min, respectively. The ACE inhibition rate was measured immediately after incubation.

[3] = NaCl solutions 2-12%, 37 °C for 30 min

Molecule	IC50 of ACE inhibitory activity (enzyme activity assay, ACE from rabbit lung, substrate HHL) [1] [µM]	IC50 (ACE (from rabbit lung)) [µM]	ACE inhibitory activity under pepsin or trypsin digestion (pepsin and trypsin)	stability of ACE inhibitory activity with metal ions K+, Ca2+ and Mg2+ ([2]; 100 μg/mL KCl, CaCl2, MgSO4, 37 °C for 2 h)	stability of ACE inhibitory activity under high-concentration salt conditions [2, 3]	stability of ACE inhibitory activity under low-concentration salt conditions [2, 3]	stability of ACE inhibitory activity at low glucose concentration ([2]; glucose solutions 2-12%, 37 °C for 30 min, low concentrations)
Phe-Val-Ile-Glu-Pro-Asn-Ile-Thr-Pro-Ala (…) (peptide)	6.36						
VERGRRITSV [VERGRRITSV, Val-Glu-Arg-Gly-Arg-Arg-Ile-Thr-Ser-Val]		6.82	could still maintain high ACE inhibitory activity	showed stability	less stable	good stability	showed stability
VERGRRITSV [Val-Glu-Arg-Gly-Arg-Arg-Ile-Thr-Ser-Val (…)]	6.82						
